# Values quoted from earlier work in patent publication US20260158002A1, “APPLICATION OF COMPOSITION CONTAINING EDARAVONE AND DEXBORNEOL IN IMPROVING OR TREATING COGNITIVE IMPAIRMENT” (NEURODAWN PHARMACEUTICAL CO., LTD., priority 2021, published 2026).
# Tests used:
# SH-SY5Y-APP695 = settings: 0.3 to 3 μM; cited from earlier work
# [1] = tested on: primary hippocampal neurons; settings: cited from earlier work
# [2] = tested on: APP/PS1 transgenic mouse model; settings: cited from earlier work
# [3] = tested on: rat model in which oligomerized Aβ1-40 is injected into the hippocampal dentate gyrus; settings: edaravone 5 mg/kg at the same site with intracerebral Aβ injection; cited from earlier work
# [4] = mice; cited from earlier work
# [5] = tested on: rat model of L-methionine-induced vascular dementia; settings: intraperitoneal 6 mg/kg/day for 9 consecutive weeks; cited from earlier work
structure (smiles),measurement,setting,value
"CC1=NN(c2ccccc2)C(=O)C1 [edaravone, 3-methyl-1-phenyl-2-pyrazolin-5-one]","BACE1 expression, cleavage of APP and Aβ production",SH-SY5Y-APP695,"capable of reducing BACE1 expression, cleavage of APP and Aβ production in a concentration-dependent manner"
same,GSK-3β activation and tau phosphorylation,SH-SY5Y-APP695,inhibiting GSK-3β activation and reducing tau phosphorylation
same,H2O2- and glutamate-induced death of primary hippocampal neurons,[1],capable of reducing H2O2— and glutamate-induced death of primary hippocampal neurons
same,deficits in the cognitive function in water maze test,"[2]; APP/PS1 mice, 12.6 mg/kg intraperitoneal twice a week, prophylactic (3 to 9 months) and therapeutic (9 to 12 months)",can improve the deficits in the cognitive function in water maze test
same,cognitive function of aged transgenic mice,"[2]; APP/PS aged mice (14 to 17 months), oral with drinking water 8, 24 and 72 mg/kg/day",significantly improves the cognitive function of aged transgenic mice
same,Aβ plaque deposition within the brain and cognitive function,"[2]; mice aged 3-12 months, oral with drinking water 33.2 mg/kg/day",can also reduce Aβ plaque deposition within the brain and improve the cognitive function of mice
same,spatial learning and memory in water maze,[3],can significantly improve the spatial learning and memory of rats in water maze
same,oral bioavailability,[4],38%
same,spatial learning and memory in eight-arm water maze test,[5],can significantly improve the spatial learning and memory of the model rats in eight-arm water maze test
